Entries after “also recorded” stand apart in the source; their conditions may differ.
Experiments:
[1] = In-vivo fluorescence imaging of corrole in nude mice (IVIS 200); details: 19 mg/kg i.p., 30 min after injection
Description: For obtaining information about in-vivo localization and distribution of the various corroles that have sulfonic acid head groups, in-vivo imaging of corroles in whole animals was performed. Of particular interest was to examine whether the leading corrole compounds unlike most porphyrins are able to cross the blood brain barrier (BBB).
The in vivo imaging experiments were performed as follows. Nude mice received i.p. injections of the fluorescent gallium(III) corrole 1C-Ga and were examined by IVIS 200 imaging system [Xenogen].

[2] = system: RIN-m cells; assay: Cellular uptake of fluorescent corrole, fluorescence microscopy, RIN-m cells; type: cell-based; details: 20 μM, half an hour at 37° C.
Text: (§1) For testing cellular membrane penetration, as well as uptake and accumulation of corroles in the cells, we took advantage of the fluorescence property of an appropriate corrole. For this purpose we used a fluorescent corrole complex (1C-Ga) that is structurally identical to the catalytic compounds utilized in the cytoprotection/cytorescue experiments, except that the chelated metal is gallium(III) rather than iron(III) in 1C-Fe or manganese(III) in 1C-Mn. The results are shown in FIGS. 21A-D for RIN-m (insulinoma) cell line and FIGS. 22A-D for SH-SY5Y (neuroblastoma) cell line.
(§2) To visualize intracellular corrole we used fluorescence microscopy. Neuroblastoma SH-SY5Y cells and insulinoma RIN-m cells were plated on coverslips. At 24 h after plating, corrole 1C-Ga was added directly to the cell media and incubated for half an hour at 37° C. The cells were then aspirated from the media and washed with phosphate buffer to eliminate background signal due to extra cellular corrole. Fixation with formaldehyde was performed. Coverslips with mounting medium (with DAPI) were directly placed on slides and viewed by fluorescence microscopy; the results are shown in FIGS. 21, 22.

[3] = system: SH-SY5Y cells; assay: Cellular uptake of fluorescent corrole, fluorescence microscopy, SH-SY5Y cells; type: cell-based, human; details: 20 μM, half an hour at 37° C.
Text: as §1, §2

cellular uptake and accumulation [2]: accumulation inside the cells
cellular uptake and accumulation [3]: accumulation inside the cells
Substance: 2,17-bis(sulfonato)-5,10,15-tris(pentafluorophenyl)-corrolato galium(III) [1C-Ga]
BBB penetration / accumulation in brain area [1]: possible BBB penetration and accumulation of the corrole complex in brain area; also recorded: indicative of the crossing of the blood brain barrier (BBB)

Source: patent publication US20140045809A1, “CORROLES FOR NEUROPROTECTION AND NEURORESCUE” (priority 2008, published 2014)
